Test results published in US11649220B2 (DEMOTECH.INC., priority 2018, dated 2023).

Key:
[1] = system: Malondialdehyde (MDA) in serum; test: In vivo anti-lipid oxidation experiment (serum MDA, TBA method); parameters: inhibition rate %: concentration or dose not given beside the values; conditions: MAD lipid peroxidation in vivo; for inhibition rate %: relative to solvent DMSO and Chow averages; for avarage value of OD: serum, TBA method, 532 nm
Description: Experimental principle: Malondialdehyde (MDA) in liposome degradation products could condense with thiobarbituric acid (TBA) to form a red product which has a maximum absorption peak at 532 nm. The spectrophotometer was used to measure the relative absorption value to calculate the antioxidant value.
Reagents: Malondialdehyde (MDA) test kit (article number: A003-1, […], Nanjing Jiancheng), glacial acetic acid of analytically pure grade.
Reagent preparations: 1) Reagent I: Reagent 1 in the kit was taken out from the refrigerator and subjected to natural warming until a transparent liquid is obtained; 2) Reagent II: 170 mL of double-distilled water was added to each bottle and mixed; 3) Reagent III: A dry powder in the kit was dissolved in 60 mL of double-distilled water at 90 to 100° C. After the dry powder was dissolved totally, 30 mL of glacial acetic acid was added and kept in dark place; 4) Standard: 10 nmol/mL tetraethoxypropane.
Experimental procedures: 1) Blank tube: To 2 mL centrifuge tube were added anhydrous ethanol (70 μl), Reagent I (70 μl), Reagent II (0.8 mL) and Reagent III (0.8 mL) in sequence; 2) Standard tube: To 2 mL centrifuge tube were added standard (70 μl), Reagent I (70 μl), Reagent 11 (0.8 mL) and Reagent III (0.8 mL) in sequence; 3) Measuring tube: To 2 mL centrifuge tube were added the serum to be tested and physiological saline (the total volume of serum and physiological saline is 70 μl), Reagent I (70 μl), Reagent II (0.8 mL) and Reagent III (0.8 mL) in sequence; 4) Control tubes: all samples are set up with corresponding control tubes. To a 2 mL centrifuge tube were added the serum to be tested and physiological saline (the total volume of serum and physiological saline is 70 μl), Reagent I (70 μl), Reagent II (0.8 mL) and 50% glacial acetic acid (0.8 mL) in sequence.
After the above reagents were added, the mixture was mixed homogenously. Then the mixture was left in the water bath at 95° C. for 60 minutes. The sample was centrifuged at 4000 rpm for 10 minutes. The supernatant was taken for the measurement of the OD value.
Experimental data processing: the MDA content in serum was calculated as follows: MDA=(OD valuemeasured−OD valuecontrol)/OD valuestandard*concentration of the standard Inhibition rate %=100−(ODsample-average value−average value of Chow)/(average value of the solvent DMSO−average value of Chow)*100

[2] = system: golden hamsters (60% high-fat food, STZ induced); test: Golden hamster disease model, animal model induction group (16-week-old group): blood biochemical indexes and body weight; type: in vivo
Method: Animals and feed: 1) 8-week-old male golden hamsters with a body weight range of 100±5 g were selected; 2) 60% high-fat food; 3) 30% high-fat food; 4) general feed: NRC standard feed, containing 5% fat, total calories 4200 kcal/kg.
Animal model induction group (16-week-old group): 1) fed with 60% high-fat food for 2 weeks under standard environment; 2) STZ intraperitoneal injection twice every two days, 50 mg/kg each time; 3) After STZ induction, the golden hamsters were continuous fed for 1 week; 4) Blood was taken from the ocular venous plexus, and the initial body weight, blood glucose, total cholesterol, LDL-c, HDL-c and triglyceride were measured, and the golden hamsters were grouped in parallel according to animal biochemical indicators, 8 in each group; 5) Gavage of compounds: 0.1 mL of solution of compound (concentration: 6.8 mg/mL, DMSO solution) and 0.25 mL of whole milk were mixed evenly and administrated by gavage once a day for 2 weeks; 6) Blank control: 0.1 mL of DMSO and 0.25 mL of whole milk were mixed evenly and administrated by gavage once a day for 2 weeks; 7) Observation time: 14 days later, blood was taken from the ocular venous plexus, and the body weight, blood glucose, total cholesterol, LDL-c, HDL-c and triglyceride were measured.
Instruments: Shimadzu UV-1750 spectrophotometer, clinical determination kit (Changchun Huili Biotechnology Co., Ltd.)
Determination of blood glucose: glucose oxidase method, kit
Determination of total cholesterol (COD-PAP method), kit
Determination of low density lipoprotein cholesterol (direct method), kit
Determination of triglyceride (GP-PAP method)
Determination of high density lipoprotein (direct method), kit

[3] = In vitro free radical inhibition test (DPPH method); conditions: 8 μL of 20 mmol/L compound in 1 mL DPPH 0.059 mg/mL ethanol, 60 min dark, 517 nm; for inhibition rate %: DPPH; for Relative inhibition ability on free radicals: inhibition rate of AGI1067 on DPPH defined as 100
Description: 1. In Vitro Free Radical Inhibition Test (DPPH Method)
The single electron of DPPH radical has a strong absorption at […], and its alcohol solution is purple. In the presence of a free radical scavenger, the absorption of DPPH radical is weakened or disappeared for the reason that the free radical scavenger is paired with the single electron of DPPH radical, and the degree of discoloration is quantitatively related to the number of electrons DPPH radical receives. Therefore, a spectrophotometer can be used to quickly and quantitatively analyze the free radical scavenging rate of the compound.
1) 1 mL solution of DPPH in absolute ethanol (concentration: 0.059 mg/mL) was taken; 2) 8 μL of the compound to be tested (20 mmol/L) were added; 3) after mixing well, the resultant was kept in dark at room temperature for 60 minutes, 4) the absorbance of the sample at 517 nm was measured.

[4] = after gavage once a day for 2 weeks
[5] = change rate, gavage once a day for 2 weeks

Structure (SMILES) | inhibition rate % [1] [%] | avarage value of OD [1] | inhibition rate % [3] [%] | Relative inhibition ability on free radicals [3] | further results
CC(C)(Sc1cc(C(C)(C)C)c(O)c(C(C)(C)C)c1)Sc1cc(C(C)(C)C)c(O)c(C(C)(C)C)c1 [Compound 30, probucol, reference compound] | 53.3 | 7.23 | – | – | change rate of blood glucose % ([2]; 0.1 mL of 6.8 mg/mL DMSO solution + 0.25 mL whole milk by gavage once a day for 2 weeks): −1.5%; change rate of body weight after deduction of DMSO blank % ([2]; DMSO blank deducted): −4.1%; average body weight after administration/g [2, 4]: 141.3 g; change of body weight/g [2, 4]: 7.6 g; change rate of body weight % [2, 4]: 5.7%; HDL % [2, 5]: 63.3%; LDL % [2, 5]: −12.2%; total cholesterol % [2, 5]: 8.7%; triglyceride % [2, 5]: −6.5%
CC(C)(C)C1=CC(=C2C=C(C(C)(C)C)C(=O)C(C(C)(C)C)=C2)C=C(C(C)(C)C)C1=O [Compound 29, 3,3′,5,5′-tetra-tert-butyl-[1,1′-bi(cyclohexylidene)]-2,2′,5,5′-tetraene-4,4′-dione, reference compound] | 7.9 | 8.98 | 8.8 | 20.1 | –
COC(=O)CSC(C)(C)Sc1cc(C(C)(C)C)c(O)c(C(C)(C)C)c1 [Compound 1, methyl 2-((2-((3,5-di-tert-butyl-4-hydroxyphenyl)thio)propan-2-yl)thio)acetate] | 54.1 | 7.20 | – | – | –
CC(C)(Sc1cc(C(C)(C)C)c(O)c(C(C)(C)C)c1)Sc1cc(C(C)(C)C)c(O)c(C(C)(C)CCn2cncn2)c1 [Compound 24, 2,6-di-tert-butyl-4-((2-((3-(tert-butyl)-4-hydroxy-5-(2-methyl-4-(1H-1,2,4-triazol-1-yl)butan-2-yl)phenyl)thio)propan-2-yl)thio)phenol] | 53.3 | 7.23 | 19.2 | 34.8 | –
CC(C)(Sc1cc(C(C)(C)C)c(O)c(C(C)(C)C)c1)Sc1cc(C(C)(C)C)c(O)c(C(C)(C)CCOC(=O)[C@H](c2ccccc2Cl)N2CCc3sccc3C2)c1 [Compound 15, (S)-3-(3-(tert-butyl)-5-((2-((3,5-di-tert-butyl-4-hydroxyphenyl)thio)propan-2-yl)thio)-2-hydroxyphenyl)-3-methylbutyl 2-(2-chlorophenyl)-2-(6,7-dihydrothieno[3,2-c]pyridin-5(4H)-yl)acetate] | 50.5 | 7.34 | 19.1 | 43.8 | –
CC(C)(C)c1cc(SSc2cc(C(C)(C)C)c(O)c(C(C)(C)CCO)c2)cc(C(C)(C)C)c1O [Compound 6, 2,6-di-tert-butyl-4-((3-(tert-butyl)-4-hydroxy-5-(4-hydroxy-2-methylbutan-2-yl)phenyl)disulfanediyl)phenol] | 71.2 | 6.54 | 53.2 | 95.2 | –
CC(C)(Sc1cc(C(C)(C)C)c(O)c(C(C)(C)C)c1)Sc1cc(C(C)(C)C)c(O)c(C(C)(C)CCOC(=O)CN)c1 [Compound 19, 3-(3-(tert-butyl)-5-((2-((3,5-di-tert-butyl-4-hydroxyphenyl)thio)propan-2-yl)thio)-2-hydroxyphenyl)-3-methylbutyl glycinate] | 27.9 | 8.21 | 32.1 | 42.6 | –
CC(C)(Sc1cc(C(C)(C)C)c(O)c(C(C)(C)C)c1)Sc1cc(C(C)(C)C)c(O)c(C(C)(C)CCNS(=O)(=O)C2CC2)c1 [Compound 25, N-(3-(3-(tert-butyl)-5-((2-((3,5-di-tert-butyl-4-hydroxyphenyl)thio)propan-2-yl)thio)-2-hydroxyphenyl)-3-methylbutyl)cyclopropanesulfonamide] | 48.1 | 7.43 | 28.6 | 29.3 | –
CC(=O)OCCC(C)(C)c1cc(SC(C)(C)Sc2cc(C(C)(C)C)c(O)c(C(C)(C)C)c2)cc(C(C)(C)C)c1O [Compound 14, 3-(3-(tert-butyl)-5-((2-((3,5-di-tert-butyl-4-hydroxyphenyl)thio)propan-2-yl)thio)-2-hydroxyphenyl)-3-methylbutyl acetate] | 55.9 | 7.13 | 37.3 | 85.5 | –
COc1cc(SC(C)(C)Sc2ccc(O)c(OC)c2)ccc1O [Compound 7, 4,4′-(propane-2,2-diylbis(thio))bis(2-methoxyphenol)] | 47.6 | 7.45 | 73.9 | 169.4 | –
CC(C)(Sc1cc(C(C)(C)C)c(O)c(C(C)(C)C)c1)Sc1cc(C(C)(C)C)c(O)c(C(C)(C)CCOCCN2CCOCC2)c1 [Compound 18, 2,6-di-tert-butyl-4-((2-((3-(tert-butyl)-4-hydroxy-5-(2-methyl-4-(2-morpholinoethoxy)butan-2-yl)phenyl)thio)propan-2-yl)thio)phenol] | 53.8 | 7.21 | 23.5 | 53.8 | –
CC(C)(Sc1cc(C(C)(C)C)c(O)c(C(C)(C)C)c1)Sc1cc(C(C)(C)C)c(OC(=O)CCC(=O)O)c(C(C)(C)C)c1 [Compound 31, 4-(2,6-di-tert-butyl-4-((2-((3,5-di-tert-butyl-4-hydroxyphenyl)thio)propan-2-yl)thio)phenoxy)-4-oxobutanoic acid, reference compound] | 49.1 | 7.39 | 43.6 | 100.0 | –
CC(C)(Sc1cc(C(C)(C)C)c(O)c(C(C)(C)C)c1)Sc1cc(C(C)(C)C)c(O)c(C(C)(C)CCN)c1 [Compound 16, 2-(4-amino-2-methylbutan-2-yl)-6-(tert-butyl)-4-((2-((3,5-di-tert-butyl-4-hydroxyphenyl)thio)propan-2-yl)thio)phenol] | 25.0 | 8.32 | 91.8 | 210.4 | –
CCOC(=O)CCSC(C)(C)Sc1cc(C(C)(C)C)c(O)c(C(C)(C)C)c1 [Compound 3, ethyl 3-((2-((3,5-di-tert-butyl-4-hydroxyphenyl)thio)propan-2-yl)thio)propionate] | 34.9 | 7.94 | 43.7 | 100.2 | –
